Experimental data from patent publication US11906523B2, “Signaling conjugates and methods of use” (VENTANA MEDICAL SYSTEMS, INC., priority 2012, dated 2024).
One block for each compound: values may come before it.

Assays:
[1] = UV-Vis absorbance spectra of signaling conjugates and chromophores; format: physicochemical
From the text: The wavelength at which the maximum fraction of light is absorbed by a substance is referred to as λmax. Because this wavelength is absorbed to the greatest extent, it is typically referred to as the absorbance wavelength. […] While λmax designates the wavelength of maximum absorption, the FWHM designates the breadth of the spectral absorbance.
Trace A corresponds to the signaling conjugate used for FIG. 15(A) and trace B corresponds to the signaling conjugated used for FIG. 15(B); note that each signaling conjugate was analyzed with spectrometry in solution prior to staining and on the slide subsequent to having detected the HER2 (the dashed traces representing the spectra obtained on the tissue).

[2] = UV-Vis spectra of fast red and fast blue; format: physicochemical; details: ethyl acetate solutions, FIG. 8(B)
From the text: While providing a range of new colors for the recognition of targets within biological samples is useful alone, the presently disclosed signaling conjugates are particularly useful in multiplexed assays, as well as assays using translocation probes. FIG. 8(A) is a photomicrograph of a dual stain of two gene probes on section of lung tissue testing for ALK rearrangements associated with non-small cell lung cancer. FIG. 8(B) illustrates UV-Vis spectra of fast red and fast blue in ethyl acetate solutions. The 3′ probe was detected using fast red and the 5′ probe was detected using fast blue. FIGS. 9(A) and 9(B) illustrate the traces of FIG. 8(B) separately. […] Comparing this range to the color wheel, the expected color corresponding to the spectral absorption characteristic would be either red or orange. The range of absorption is so large it essentially covers all of those wavelengths one would expect to result in a red or an orange color. […] Again, referring to the color wheel in FIG. 6(A), the absorption from 525-625 nm covers nearly half of the color wheel with blue, indigo, and violet being complementary.

[3] = absorption spectrum of signaling conjugate

λmax ([1]; diazo chromophore moiety itself): about 427 nm
Compound: O=C([O-])C1=NN(c2ccc(S(=O)(=O)[O-])cc2)C(=O)C1N=Nc1ccc(S(=O)(=O)[O-])cc1.[Na+].[Na+].[Na+] (stereo not shown) [Tartrazine]

Compound: CN(C)c1ccc2c(-c3ccc(C(=O)NCCc4ccc(O)cc4)cc3C(=O)[O-])c3ccc(N(C)C)cc3[o+]c2c1 [5-TAMRA-tyramide conjugate]
full width of the peak at the half maximum absorbance (FWHM) [1, 3]: approximately 40 nm
λmax [1, 3]: 552 nm

strong absorption wavelength range [2]: 525-625 nm
Compound: Fast blue
